Measured values: US10864273B2, “Thiobase compounds for photodynamic therapy” (CASE WESTERN RESERVE UNIVERSITY, priority 2015, dated 2020)
Like-named read-outs stand apart in the source and are kept apart here.

Columns and labels:
[1] = Femtosecond broadband transient absorption spectroscopy of the thiothymine series (intersystem crossing, triplet yield); type: physicochemical
Procedure: Femtosecond transient absorption spectroscopy was performed using a Ti— Sapphire regenerative amplifier laser system (Libra-HE, Coherent, Inc.; 800 nm, 100 fs, 4.0 W at 1 kHz). 2.6 W of the 800 nm beam were used to pump an optical parametric amplifier (TOPAS, Quantronix/Light Conversion) to generate the excitation beam at selected wavelengths of 320, 335, and 360 nm. Contributions to the excitation beam from other wavelengths and polarizations were removed by a reflective wavelength filter (λ-filter) and a Glan-Taylor polarizer, respectively, and the polarization was randomized using a depolarizing plate in order to prevent rotational effects from contributing to the dynamics, as described in details elsewhere.
A Helios spectrometer (Ultrafast Systems, LLC.) was used for pump-probe measurements. A fraction of the fundamental (800 nm) beam from the Libra-HE was used to generate white light continuum (WLC). The Helios spectrometer uses an optical delay line with a maximum delay of ˜3 ns for the 800 nm beam, which was used to pump a continuously-moving 2 mm CaF2 plate for generation of the WLC broadband probe pulse covering the spectral range from ˜320-700 nm. The probe light was then passed through a 730 nm low-pass dichroic optical filter, so as to block residual fundamental beam and to avoid saturating the complementary metal-oxide-semiconductor (CMOS) detectors. The probe pulse was then split into two beams, both of which were recollimated and focused into the optical fibers leading to their respective CMOS detectors. In this setup, one of the beams serves as reference, while the other is used to probe the sample of interest. A synchronized chopper wheel was used to block every other pump pulse, such that the difference in absorption between two consecutive measurements gives the transient spectrum. The excitation beam was attenuated to 1 μJ/pulse at the sample using a neutral density optical filter before entering the spectrometer. The excitation pulse was focused to a beam diameter three times larger than that of the probe beam at the sample position. Detection time windows of 20 and 200 ps were used in this work.
All solutions were prepared using pH 7.4 aqueous phosphate buffer, with a total phosphate concentration of 16 mM. The solution was continuously stirred in a 2 mm optical path length quartz cell (Starna Cells, Inc.) using a Teflon-coated magnetic stirring bar so as to bring fresh sample to the pump-probe region for each measurement. The solution in the cuvette was replaced with a fresh sample, from the same stock solution, every 5-7 scans, so that all scans had no more than 5% decrease in absorbance at the lowest-energy absorption-band maximum as determined by steady-state absorption spectroscopy.
All broadband transient absorption data were corrected for group velocity dispersion (GVD) of the WLC using a home-made LabView program (National Instruments, Inc.) as previously described. 3 Analysis of transient absorption kinetics was performed in Igor Pro 6.32A (WaveMetrics, Inc.) using the target analysis method, as described previously, and a sequential kinetic model convoluted with an instrument response function of ˜200 fs (FWHM). The instrument response was determined from the coherence signal of neat methanol generated at the sample cell. Global fitting analysis was performed using 15 to 30 representative kinetic traces covering the full range of probe wavelengths. At least three independent datasets (i.e., recorded on three different days) were used in the analysis and all uncertainties are reported as twice the standard deviation of the average lifetime. Decay associated spectra shown in FIG. 7A were extracted from the global fitting analysis of the transient decay traces taken every third probe wavelength across the entire WLC range.

[2] = pH 7.4 phosphate buffer solution, cited from earlier work; for ΦT triplet quantum yield: previously reported values
[3] = O2-saturated acetonitrile solution; previously measured / standard value; cited from earlier work
[4] = cited from earlier work
[5] = Femtosecond to microsecond transient absorption spectroscopy of the thiouracil series (intersystem crossing, triplet yield, triplet decay, triplet-triplet extinction)
Text: Briefly, 800 nm, 100 fs fundamental pulses were generated with a Ti-Sapphire regenerative amplifier laser system (Libra-HE, Coherent, Inc.: 4.0 W, 1 kHz). The fundamental beam was used to produce pump wavelengths of 320, 335, and 350 nm via an optical parametric amplifier (TOPAS, Quantronix/Light Conversion). Unwanted wavelengths were removed from the pump beam using a reflective wavelength filter and a Glan-Taylor polarizer. A fraction of the remaining fundamental beam was focused into a continuously moving CaF2 plate (2 mm thick) to generate broadband white light probe pulses (320-700 nm). The intensity of the excitation beam was attenuated to 1 mJ per pulse at the sample position. The polarization of the pump beam was randomized before being focused into the sample to overlap with the white light continuum probe at a 3:1 beam diameter ratio. Pump-probe experiments were collected using a Helios spectrometer (Ultrafast Systems, LLC) and a home-made data acquisition software (LabView, National Instruments, Inc.).
Solutions of the 2tUra, 4tUra, and 2,4dtUra derivatives were prepared in aqueous phosphate-buffered saline at pH 7.4. […] Solutions were investigated in 2 mm optical path length quartz cells and the irradiated volume was continuously refreshed by stirring with a Teflon-coated magnetic stir bar. Contributions to the transient data from any putative photoproduct formation were prevented by replacing the solution with fresh stock solution every 5 scans, or before 6% sample degradation (as monitored by a decrease in the steady-state absorbance of the lowest-energy absorption band). The UVA excitation wavelength used was varied depending on the absorption spectrum of the specific thiouracil derivative investigated. For 2tUra, an excitation wavelength of 320 nm was used, whereas 2,4dtUra was excited at 335 and 350 nm, and 4tUra was excited at all three of these UVA wavelengths.
Decay of the triplet state of 4tUra and 2,4dtUra to the ground state was monitored using the same excitation and detection setups but probing with an electronically triggered broadband white light source (Eos, Ultrafast Systems, LLC) that has been conveniently integrated into the Helios spectrometer. This probe source has a spectral window from B375 to 800 nm, a time resolution of about 400 ps, and a temporal window of up to 120 ms. […] Data were collected with the solutions under a constant nitrogen flow, and exciting at 350 nm with 3 mJ per pulse for 10 min, corresponding to less than 5% degradation.
For each data set, between 50 and 100 traces were selected across the entire range of probe wavelengths and globally analyzed in Igor Pro 6.32A (WaveMetrics, Inc.). […] 83 The uncertainties reported for the triplet population lifetimes are twice the standard deviation from the average fitting of at least three independent datasets (i.e., recorded on three different days). Triplet-triplet absorption spectra were extracted from the global fitting analysis.

[6] = test system: adenosine 5′-monophosphate (5′-AMP); assay: Photoreactivity with adenosine 5′-monophosphate upon 365 nm irradiation in N2-saturated buffer; details: with 5′-AMP, 1:5 molar ratio (24 and 120 mM); 365 nm irradiation; N2-saturated aqueous buffer pH 7.4
Procedure: Aqueous phosphate-buffered saline solutions, pH 7.4, containing either 4tUra or 2,4dtUra were prepared with and without 5′-AMP and loaded into 1×1 cm septum-top quartz cuvettes. The concentrations of the thiouracil derivatives and 5′-AMP were […], respectively. These concentrations were chosen in order to favor the bimolecular photoreaction between the thiouracil derivative and 50-AMP, while simultaneously maintaining the absorbance of the solutions within the linear dynamic range limit of the UV-visible spectrophotometer used. All solutions were purged with ultrapure nitrogen for 30 min and kept under constant nitrogen flow throughout the irradiation period. An optical parametric amplifier (TOPAS, Quantronix/Light Conversion) pumped by our Libra laser system (described above) was used for monochromatic (±1 nm) irradiation of the samples. […] Absorbance changes in the thiouracil solutions, with and without 5′-AMP, were monitored periodically using UV-visible spectroscopy (Cary 100 Bio) during irradiation at 365 nm for up to 90 min and while stored in the dark for up to three and a half days.
In order to scrutinize the light-induced reactivity of these sensitizers toward biomolecules, aqueous phosphate-buffered saline solutions of either 4tUra or 2,4dtUra were prepared in the presence of the RNA monomer adenosine 5′-monophosphate (5′-AMP) at a 1:5 molar ratio. […] The experimental conditions were chosen in order to facilitate the extraction of relative photoreaction rates from the changes in the steady-state absorption spectra with irradiation time. […]

[7] = Singlet oxygen quantum yield by phosphorescence at 1270 nm, thiouracil series; type: physicochemical
Procedure: Solutions of 4tUra, 2,4dtUra, and the singlet oxygen standard (phenalenone; ΦΔ=0.98) were prepared in acetonitrile, each with an absorbance of 0.3 at 355 nm in a 1×1 cm quartz cuvette. The solutions were purged with oxygen for 30 min, followed by the determination of quantum yields from back-toback measurements of the singlet oxygen phosphorescence intensity at 1270 nm. The O2-saturated solutions were excited at 355 nm (Spectra Physics GCR-150-30: 7 ns pulse width) and the phosphorescence at 1270 nm was detected with a NIR sensitive photomultiplier tube (H10330A-45, Hamamatsu).
The singlet oxygen (^1O2) quantum yields of 4tUra and 2,4dtUra were measured by monitoring the characteristic phosphorescence of ^1O2 at 1270 nm with nanosecond time resolution.

[8] = Steady-state absorption spectroscopy, thymine series; type: physicochemical; details: phosphate buffer solution at pH 7.4
Text: 2-thiothymine (2tThy, 98% purity) was obtained from AK Scientific, 4-thiothymidine (4tThd, 99% purity) was obtained from Carbosynth Ltd., and 2-thiothymidine (2tThd) and 2,4-dithiothymine (2,4dtThy) were obtained from Sigma Aldrich. All compounds were used as received. The purity of these compounds was ensured by using fluorescence spectroscopy and by comparison with the published absorption maxima and their corresponding extinction coefficients. Phosphate buffer solutions were freshly prepared using 0.12 g of sodium dihydrogen phosphate and 0.089 g of disodium hydrogen phosphate dissolved in 100 mL of ultrapure water and adjusted to pH 7.4 using a 2 M NaOH solution. Steady-state absorption spectra were measured using a Cary 100 Bio spectrometer. All absorption spectra were corrected for the solvent background by subtraction of the absorption of the solvent.
Specifically, sulfur substitution of the C2 carbonyl in thymine results in about a 10 nm redshift in the absorption maximum, whereas substitution at the C4 position results in a redshift of about 70 nm. Remarkably, double-substitution results in about a 100 nm redshift of the lowest-energy absorption band of thymidine (ΔE=9905 cm^−1), without an appreciable change in the magnitude of the extinction coefficient at the corresponding wavelengths (1×10^4 M^−1 cm^−1). Replacement of an oxygen atom by a sulfur atom in a carbonyl bond is expected to shift the absorption spectrum to the red because the thiocarbonyl is weaker than the carbonyl bond and the excited electronic states in thiocarbonyl compounds are typically found at lower energies. However, the difference in bond strengths between a carbonyl and thiocarbonyl bond cannot solely explain the large spectral shift observed between 2tThy/2tThd and 4tThd. Furthermore, the redshift in the absorption spectrum of 2,4dtThy cannot simply be expressed as a linear combination of the absorption spectra of the 2tThy/2tThd and 4tThd derivatives. […] Glycosylation of 2tThy, generating 2tThd, results in a 2 nm redshift in the absorption maximum and about 2-fold increase in the molar absorptivity coefficients (FIG. 1B). The same effect has been previously documented in the natural bases and in other thiobases. Therefore, glycosylation of 2,4dtThy to form 2,4-dithiothymidine is expected to redshift the absorption spectrum slightly and to increase the molar absorptivity coefficients.

[9] = aqueous phosphate-buffered saline solution, pH 7.4

## Cc1cn([C@H]2C[C@H](O)[C@@H](CO)O2)c(=S)[nH]c1=O [2tThd, 2-thiothymidine]
[1]; pH 7.4 phosphate buffer solution, probe 600 nm
  τISC intersystem crossing lifetime: 410 ± 60 fs
[2]
  ΦT triplet quantum yield: 0.9 ± 0.1

## Cc1c[nH]c(=S)[nH]c1=O [2tThy, 2-thiothymine]
[1]
  intersystem crossing rate increase relative to Thd: 1.2 fold
[2]
  ΦT triplet quantum yield: 0.9 ± 0.1
[3]
  ΦΔ singlet oxygen quantum yield: 0.36 ± 0.02

## O=c1cc[nH]c(=S)[nH]1 [2tUra, 2-thiouracil]
[4]
  pKa: 7.74
[5]; [9]
  τISC intersystem crossing lifetime: 360 ± 30 fs

## O=c1[nH]ccc(=S)[nH]1 [4tUra, 4-thiouracil]
[4]
  pKa: 8.0
[5]; [9]
  τISC intersystem crossing lifetime: 240 ± 20 fs
[5]; aqueous phosphate-buffered saline solution, pH 7.4, 24 mM solutions, nitrogen-purged, 350 nm excitation
  κT triplet-state decay rate: 1.7 ± 0.3 10^6 s^−1
[5]; at 600 nm, singlet depletion method
  triplet-triplet extinction coefficient: 3000 ± 600 M⁻¹ cm⁻¹
[6]
  photoreaction rate: (0.39±0.04)×10^−9 M s^−1
[7]; O2-saturated acetonitrile, 355 nm excitation, phenalenone standard
  ΦΔ singlet oxygen quantum yield: 0.49±0.02
[7]; excited to lowest-energy absorption band
  1O2 yield relative to uracil: 3.3 fold
[7]; following UVA excitation
  1O2 yield: ca. 50%

## Cc1cn([C@H]2C[C@H](O)[C@@H](CO)O2)c(=O)[nH]c1=O [Thd, thymidine]
[8]
  maximum of lowest-energy absorption band: ~267 nm
  ε at maximum of lowest-energy absorption band: ≈ 9.9×10^3 M^−1 cm^−1
[2]
  ΦT triplet quantum yield: 0.014 ± 0.001
[2]; recently reported value for thymidine
  τISC intersystem crossing lifetime: 760 fs
[3]
  ΦΔ singlet oxygen quantum yield: 0.07 ± 0.01
